Earlier results on six molecules are cited in article PMC8197769 (Progress in retinal and eye research, 2020).

Like-named read-outs stand apart in the source and are kept apart here.

For data set [1], the system named is patients with geographic atrophy. The note with it: intravitreal; ref Gensler et al., 2018.
Data set [2] has the same test system. The note with it: ref Jaffe et al., 2020.
Another data set concerns drusen. The note with it: intravitreal injection, preliminary studies; ref Chi et al., 2010.
In data set [3] the test system is patients with geographic atrophy. The note with it: ref Holz et al., 2018.
Data set [4] concerns patients with paroxysmal nocturnal hemoglobinuria.
Data set [5] concerns patients with geographic atrophy. The note with it: ref Liao et al., 2020.
The conditions of data set [6]: intravitreal injection, phase I; ref NCT01255462.
For data set [7], the system named is patients with geographic atrophy. The note with it: 5 mg monthly vs. sham, 150 patients; ref NCT01527500.

For `CO[C@H]1C[C@@H]2CC[C@@H](C)[C@@](O)(O2)C(=O)C(=O)N2CCCC[C@H]2C(=O)O[C@H]([C@H](C)C[C@@H]2CC[C@@H](O)[C@H](OC)C2)CC(=O)[C@H](C)/C=C(\C)[C@@H](O)[C@@H](OC)C(=O)[C@H](C)C[C@H](C)/C=C/C=C/C=C/1C` [sirolimus], the “efficacy for GA” value in data set [1] is “did not suggest efficacy for GA”.
Take avacincaptad pegol: the endophthalmitis result in data set [2] is recorded as “no cases of endophthalmitis”.
As for compstatin, the effect on drusen result in the data set with drusen is listed as “may cause drusen regression”.
With “lampalizumab: fragment of humanized monoclonal antibody, inhibits Factor D”, in data set [3], the “phase III outcome for GA” value is recorded as “negative results”.
For pegcetacoplan, the “safety during prolonged and systemic clinical intervention” value in data set [4] (human, in vivo) is recorded as “acceptable safety profiles”. The “efficacy in paroxysmal nocturnal hemoglobinuria” value in data set [4] (phase III, ref Apellis Pharmaceuticals, 2020, Castro et al.) is “showed efficacy”. Also, the “investigator-determined conversion to exudative AMD” value in data set [5] (every other month group (sham 1.2%)) is recorded as 8.9%; in data set [5] (monthly group (sham 1.2%)) it was 20.9%.

B1: tesidolumab: IgG1 antibody that prevents C5 cleavage (antibody, chains of the INN, looked up, V domains shown)
VH: EVQLVQSGAEVKKPGSSVKVSCKASGGTFSSYAISWVRQAPGQGLEWMGGIGPFFGTANYAQKFQGRVTITADESTSTAYMELSSLRSEDTAVYYCARDTPYFDYWGQGTLVTVSS
VL: SYELTQPLSVSVALGQTARITCSGDSIPNYYVYWYQQKPGQAPVLVIYDDSNRPSGIPERFSGSNSGNTATLTISRAQAGDEADYYCQSFDSSLNAEVFGGGTKLTVL
On to B1, for which the safety result in data set [6] is reported as “No significant safety events were seen”. Also, the “benefit for GA or vision” value in data set [7] was “No benefit”.
